Laboratory results as given in article PMC9516332 (Frontiers in Oncology, 2022).
Read-outs that look alike come from different tables or passages of the source.

How the values were obtained:
134 cancer cell lines = assay: Cell viability assay (ATPlite, 72 hours), IC50 on cancer cell line panel
AP-1060 (ETV6-NTRK3) = assay: Cell viability assay; settings: read-out: IC50 in cell proliferation assay

Cn1cnc2c(F)c(Nc3ccc(Br)cc3F)c(C(=O)NOCCO)cc21 [binimetinib]
IC50 (134 cancer cell lines; Homo sapiens, MV4-11, read-out: IC50 in cell proliferation assay, MV4-11 cell line (FLT3 ITD)): 511 nM
IC50 (134 cancer cell lines; Homo sapiens, MeWo, read-out: IC50 in cell proliferation assay, MeWo cell line): 117 nM
IC50 (134 cancer cell lines; Homo sapiens, NCCIT, read-out: IC50 in cell proliferation assay, NCC-IT cell line): 12100 nM
IC50 (134 cancer cell lines; Homo sapiens, NCI-H82, read-out: IC50 in cell proliferation assay, cell line NCI-H82): > 31600 nM
IC50 (134 cancer cell lines; Homo sapiens, NCI-H460, read-out: IC50 in cell proliferation assay, NCI-H460 cell line): 120 nM
IC50 (134 cancer cell lines; Homo sapiens, NCI-H661, read-out: IC50 in cell proliferation assay, NCI-H661 cell line): 3310 nM
IC50 (134 cancer cell lines; Homo sapiens, NCI-H716, read-out: IC50 in cell proliferation assay, cell line NCI-H716 (FGFR2-COL14A1)): 27 nM
IC50 (134 cancer cell lines; Homo sapiens, NCI-H1650, read-out: IC50 in cell proliferation assay, NCI-H1650 cell line (EGFR exon19del)): 8560 nM
IC50 (134 cancer cell lines; Homo sapiens, NCI-H1975, read-out: IC50 in cell proliferation assay, NCI-H1975 cell line (EGFR p.L858R + p.T790M)): 201 nM
IC50 (134 cancer cell lines; Homo sapiens, NCI-H2228, read-out: IC50 in cell proliferation assay, NCI-H2228 cell line (EML4-ALK)): 16 nM
IC50 (134 cancer cell lines; Homo sapiens, OVCAR-3, read-out: IC50 in cell proliferation assay, cell line OVCAR-3): > 31600 nM
IC50 (134 cancer cell lines; Homo sapiens, PFSK-1, read-out: IC50 in cell proliferation assay, cell line PFSK-1): > 31600 nM
IC50 (134 cancer cell lines; Homo sapiens, RL95-2, read-out: IC50 in cell proliferation assay, cell line RL95-2 (EGFR p.A289V)): 24 nM
IC50 (134 cancer cell lines; Homo sapiens, RPMI-7951, read-out: IC50 in cell proliferation assay, cell line RPMI-7951 (BRAF p.V600E)): 199 nM
IC50 (134 cancer cell lines; Homo sapiens, RS4-11, read-out: IC50 in cell proliferation assay, cell line RS4;11): > 31600 nM
IC50 (134 cancer cell lines; Homo sapiens, Rec1, read-out: IC50 in cell proliferation assay, cell line REC-1): > 31600 nM
IC50 (134 cancer cell lines; Homo sapiens, SHP77, read-out: IC50 in cell proliferation assay, cell line SHP-77): > 31600 nM
IC50 (134 cancer cell lines; Homo sapiens, SK-BR-3, read-out: IC50 in cell proliferation assay, cell line SK-BR-3 (ERBB2 amplification)): > 31600 nM
IC50 (134 cancer cell lines; Homo sapiens, SK-N-AS, read-out: IC50 in cell proliferation assay, cell line SK-N-AS): 14 nM
IC50 (134 cancer cell lines; Homo sapiens, SK-N-FI, read-out: IC50 in cell proliferation assay, cell line SK-N-FI): 798 nM
IC50 (134 cancer cell lines; Homo sapiens, SK-N-MC, read-out: IC50 in cell proliferation assay, cell line SK-N-MC): > 31600 nM
IC50 (134 cancer cell lines; Homo sapiens, SK-N-SH, read-out: IC50 in cell proliferation assay, cell line SK-N-SH (ALK p.F1174L)): 59 nM
IC50 (134 cancer cell lines; Homo sapiens, SNU-5, read-out: IC50 in cell proliferation assay, cell line SNU-5 (MET amplification)): 1460 nM
IC50 (134 cancer cell lines; Homo sapiens, SNU-16, read-out: IC50 in cell proliferation assay, cell line SNU-16 (FGFR2 amplification)): 9730 nM
IC50 (134 cancer cell lines; Homo sapiens, SNU-C2B, read-out: IC50 in cell proliferation assay, cell line SNU-C2B (EGFR p.R165Q)): 176 nM
IC50 (134 cancer cell lines; Homo sapiens, SU-DHL-1, read-out: IC50 in cell proliferation assay, cell line SU-DHL-1 (NPM1-ALK)): 2840 nM
IC50 (134 cancer cell lines; Homo sapiens, SU-DHL-6, read-out: IC50 in cell proliferation assay, cell line SU-DHL-6): 47 nM
IC50 (134 cancer cell lines; Homo sapiens, SUP-T1, read-out: IC50 in cell proliferation assay, cell line SUP-T1): > 31600 nM
IC50 (134 cancer cell lines; Homo sapiens, SW48, read-out: IC50 in cell proliferation assay, cell line SW48 (EGFR p.G719S)): 14 nM
IC50 (134 cancer cell lines; Homo sapiens, SW480, read-out: IC50 in cell proliferation assay, cell line SW480): 739 nM
IC50 (134 cancer cell lines; Homo sapiens, SW626, read-out: IC50 in cell proliferation assay, cell line SW626): 32 nM
IC50 (134 cancer cell lines; Homo sapiens, SW780, read-out: IC50 in cell proliferation assay, cell line SW780 (FGFR3-BAIAP2L1)): 272 nM
IC50 (134 cancer cell lines; Homo sapiens, SW837, read-out: IC50 in cell proliferation assay, cell line SW837): 110 nM
IC50 (134 cancer cell lines; Homo sapiens, SW872, read-out: IC50 in cell proliferation assay, cell line SW872 (BRAF p.V600E)): 34 nM
IC50 (134 cancer cell lines; Homo sapiens, SW900, read-out: IC50 in cell proliferation assay, cell line SW900): 77 nM
IC50 (134 cancer cell lines; Homo sapiens, SW948, read-out: IC50 in cell proliferation assay, cell line SW948): 82 nM
IC50 (134 cancer cell lines; Homo sapiens, SW982, read-out: IC50 in cell proliferation assay, cell line SW982 (BRAF p.V600E)): 166 nM
IC50 (134 cancer cell lines; Homo sapiens, SW-620, read-out: IC50 in cell proliferation assay, cell line SW620): 18 nM
IC50 (134 cancer cell lines; Homo sapiens, T98G, read-out: IC50 in cell proliferation assay, cell line T98G): 11900 nM
IC50 (134 cancer cell lines; Homo sapiens, TCC-SUP, read-out: IC50 in cell proliferation assay, cell line TCCSUP): 363 nM
IC50 (134 cancer cell lines; Homo sapiens, THP-1, read-out: IC50 in cell proliferation assay, cell line THP-1): 17 nM
IC50 (134 cancer cell lines; Homo sapiens, U2OS, read-out: IC50 in cell proliferation assay, cell line U2OS): 4120 nM
IC50 (134 cancer cell lines; Homo sapiens, U-87 MG, read-out: IC50 in cell proliferation assay, cell line U-87MG ATCC): 8590 nM
IC50 (134 cancer cell lines; Homo sapiens, U-118-MG, read-out: IC50 in cell proliferation assay, cell line U-118MG): > 31600 nM
IC50 (134 cancer cell lines; Homo sapiens, UMUC3, read-out: IC50 in cell proliferation assay, cell line UM-UC-3): 124 nM
IC50 (134 cancer cell lines; Hs766T, read-out: IC50 in cell proliferation assay, Hs 766T cell line): 33 nM
IC50 (134 cancer cell lines; L-82, read-out: IC50 in cell proliferation assay, L-82 cell line (NPM1-ALK)): 1900 nM
IC50 (134 cancer cell lines; Rh30, read-out: IC50 in cell proliferation assay, cell line Rh30): > 31600 nM
IC50 (134 cancer cell lines; read-out: IC50 in cell proliferation assay, 11-18 cell line (EGFR p.L858R)): > 31600 nM
IC50 (134 cancer cell lines; read-out: IC50 in cell proliferation assay, Hs 852.T cell line): 271 nM
IC50 (134 cancer cell lines; read-out: IC50 in cell proliferation assay, JAR cell line): > 31600 nM
IC50 (134 cancer cell lines; read-out: IC50 in cell proliferation assay, cell line 5637): 139 nM
IC50 (134 cancer cell lines; read-out: IC50 in cell proliferation assay, cell line A-388): 696 nM
IC50 (134 cancer cell lines; read-out: IC50 in cell proliferation assay, cell line DB): > 31600 nM
IC50 (134 cancer cell lines; read-out: IC50 in cell proliferation assay, cell line DEL (NPM1-ALK)): > 31600 nM
IC50 (134 cancer cell lines; read-out: IC50 in cell proliferation assay, cell line ES-2 (BRAF p.V600E)): 188 nM
IC50 (134 cancer cell lines; read-out: IC50 in cell proliferation assay, cell line PA-1): 1350 nM
IC50 (134 cancer cell lines; read-out: IC50 in cell proliferation assay, cell line PC-3): > 31600 nM
IC50 (134 cancer cell lines; read-out: IC50 in cell proliferation assay, cell line RD): 40 nM
IC50 (134 cancer cell lines; read-out: IC50 in cell proliferation assay, cell line RKO (BRAF p.V600E)): 29 nM
IC50 (134 cancer cell lines; read-out: IC50 in cell proliferation assay, cell line RL): > 31600 nM
IC50 (134 cancer cell lines; read-out: IC50 in cell proliferation assay, cell line RT-4 (FGFR3-TACC3)): 19000 nM
IC50 (134 cancer cell lines; read-out: IC50 in cell proliferation assay, cell line SR (NPM1-ALK)): 4030 nM
IC50 (134 cancer cell lines; read-out: IC50 in cell proliferation assay, cell line T24): 60 nM
IC50 (134 cancer cell lines; read-out: IC50 in cell proliferation assay, cell line TT (RET p.C634W)): 1750 nM
IC50 (134 cancer cell lines; read-out: IC50 in cell proliferation assay, cell line VA-ES-BJ): 8280 nM
IC50 (AP-1060 (ETV6-NTRK3)): 18800 nM
